# From patent US20190010236A1, “METHODS AND COMPOSITIONS FOR DECTIN-2 STIMULATION AND CANCER IMMUNOTHERAPY” (The Board of Trustees of the Leland Stanford Junior …, priority 2015, published 2019)
# Experiments:
# PDAC cells = experiment: High-mannose glycan display on kifunensine-treated tumor cells (concavalin A staining); format: cell-based; conditions: tumor cells treated with kifunensine for 3 days
# Procedure: (§1) FIG. 5A-5D. Mannosidase inhibition with kifunensine induces high-mannose glycan display and increases tumor cell immunogenicity. (FIG. 5A-5C) PDAC cells were treated with kifunensine for 3 days prior to flow cytometric analysis (FIG. 5A) or coculture with TAM (FIG. 5B, FIG. 5C). (FIG. 5A) PDAC cells stained with the mannose-binding lectin, concavalin A. (FIG. 5B, FIG. 5C) Pretreated PDAC cells were labeled with CSFE and cocultured overnight with TAM to assess cytokine production (FIG. 5B) and tumor cell uptake (FIG. 5C) by Dectin-2-expressing TAM. In some experiments, TAM were treated with Dectin-2-blocking antibodies prior to coculture with PDAC cells (FIG. 5C). *, p<0.05 by Student's t-test. (FIG. 5D) Subcutaneous PDAC tumors from kifunensine-treated mice (i.p., q2d for 7 days) were analyzed by flow cytometry. CD8 T cells (CD8^+CD90^+) among total tumor-infiltrating immune cells are gated.
# [1] = system: tumor-associated myeloid cells (TAM cells); experiment: Coculture of kifunensine-pretreated PDAC cells with TAM (cytokine production, tumor cell uptake); format: cell-based; conditions: kifunensine-pretreated PDAC cells cocultured overnight with TAM; Dectin-2-dependent
# Procedure: as §1
# subcutaneous PDAC tumors = experiment: Kifunensine treatment of mice with subcutaneous PDAC tumors; format: in vivo; conditions: kifunensine i.p., q2d for 7 days
# Procedure: as §1
# human monocytes = experiment: Flow cytometric analysis of Dectin-2 expression after GM-CSF culture; format: cell-based; conditions: 24 hr, GM-CSF 50 ng/mL
# Procedure: (§2) FIG. 4A-4D. GM-CSF induces Dectin-2 expression and sensitizes tumors to Dectin-2 stimuli. (FIG. 4A-4C) Murine (FIG. 4A, FIG. 4B) and human (FIG. 4C) monocytes were cultured for 24 hr in media supplemented or not with GM-CSF (50 ng/mL) prior to flow cytometric analysis of Dectin-2 expression (FIG. 4A, FIG. 4C) or stimulation with furfurman and analysis of TNFα production (FIG. 4B). […] (FIG. 4D) Mice bearing s.c. CT26 tumors were treated with mannan (i.v.) and/or GM-CSF (i.t.) starting on day 6 post-tumor implantation.
# as §2, with “(FIG.” for “FIG. 4A-4D. GM-CSF induces Dectin-2 expression and sensitizes tumors to Dectin-2 stimuli. (FIG.”, “GM-CSF production.” for “TNFα production (FIG. 4B).”
# murine monocytes = experiment: as above; format: cell-based; conditions: 24 hr, GM-CSF 50 ng/mL
# Procedure: as §2
# as §2, with “(FIG.” for “FIG. 4A-4D. GM-CSF induces Dectin-2 expression and sensitizes tumors to Dectin-2 stimuli. (FIG.”, “GM-CSF production.” for “TNFα production (FIG. 4B).”
# s.c. CT26 tumors = experiment: Mannan (i.v.) and/or GM-CSF (i.t.) in s.c. CT26 tumors; format: in vivo, mice; conditions: GM-CSF i.t. with mannan i.v.
# Procedure: as §2
# as §2, with “(FIG.” for “FIG. 4A-4D. GM-CSF induces Dectin-2 expression and sensitizes tumors to Dectin-2 stimuli. (FIG.”, “GM-CSF production.” for “TNFα production (FIG. 4B).”
Compound,high-mannose glycans on the cell surface (PDAC cells),"TAM activation by treated tumor cells (cytokine production, tumor cell uptake) [1]",T cell infiltration into tumors (subcutaneous PDAC tumors),high-mannose glycan display by tumor cells in vivo (subcutaneous PDAC tumors),Dectin-2 expression (human monocytes),Dectin-2 expression (murine monocytes),sensitization of tumors to Dectin-2 stimuli (tumor volume) (s.c. CT26 tumors)
O=C1N[C@@H]2[C@@H](O)[C@@H](O)[C@H](O)[C@@H](CO)N2C1=O [kifunensine],sharp increase,inducing proinflammatory cytokine production and tumor cell uptake,led to T cell infiltration into tumors,increased high-mannose glycan display by tumor cells,–,–,–
GM-CSF: cytokine that induces Dectin-2 expression by myeloid cells,–,–,–,–,induced Dectin-2 expression,induced Dectin-2 expression,sensitized tumors to Dectin-2 stimuli
